# From patent US11953435B2, “Zinc-responsive fluorophores” (Northwestern University, priority 2019, dated 2024)
# pKd: −log10 of the molar value.
# How the values were obtained:
# [1] = Stability of ZincBY-4 over 12 h by fluorescence intensity; type: physicochemical; details: for retention of fluorescence intensity after 12 hours: 10 mM glutathione (GSH); for fluorescence intensity after 12 hours: absence of GSH
# Procedure: (§1) Aqueous solutions were prepared by using de-ionized water with resistivity […], obtained using a Milli-Q water purification system. In order to properly compare the photophysical properties of ZincBY-2, ZincBY-3, and ZincBY-4 to ZincBY-1, the photophysical properties of ZincBY-1 we remeasured. […] Stock solutions of ZincBY-1, ZincBY-2, ZincBY-3, and ZincBY-4 were prepared at concentrations of 5 mM and stored at −20° C. in aliquots that were used immediately after thawing for each experiment. Unless otherwise stated, all spectroscopic methods were conducted in aqueous buffer containing 50 mM HEPES (pH 7.2) and 0.1 M KNO3. UV-visible spectra were acquired on a PerkinElmer Lambda 650 UV/Vis spectrophotometer using quartz cuvettes from Starna (1 cm path length, 10 cm path length used in extinction coefficient and quantum yield determination). Fluorescence spectra were acquired using a PerkinElmer LS 55 fluorescence spectrophotometer. For measurements containing zinc, 99.0% ZnNO3 hexahydrate (final concentration 5 μM) was used. For experiments analyzing apo probes, N,N,N′,N′-Tetrakis(2-pyridylmethyl)ethylenediamine (TPEN) (final concentration 5 μM) was added to solution. Quantum Yield and Extinction Coefficient Determination. Quantum yields for apo and holo ZincBY-1, ZincBY-2, ZincBY-3, and ZincBY-4 were determined by plotting absorbance vs. fluorescence intensity of solutions containing ZincBY-1, ZincBY-2, ZincBY-3, or ZincBY-4 at probe concentrations ranging from 50-250 nM. […] Fluorescein dissolved in 0.1 N NaOH was used as the quantum yield standard, using a literature-determined quantum yield of 0.95.^3 For all fluorophore solutions, fluorescence excitation was set at 490 nm and fluorescence emission was integrated from 510 nm to 650 nm. […] Fluorescence spectra were recorded using zinc probes (ZincBY-1, ZincBY-2, ZincBY-3, or ZincBY-4; 200 nM) and ZnSO4 (various concentrations). […] Free Zn^2+ was calculated according to a previously reported method (Ref. B4; incorporated by reference in its entirety). […] The fluorescence spectra of zinc probes (ZincBY-2, ZincBY-3, or ZincBY-4; 200 nM) wasere measured at various pH values (4.5-11). […] The fluorescence spectra of zinc probes (ZincBY-2, ZincBY-3, or ZincBY-4; 200 nM) were measured in the presence an excess of metal ion including 1 mM KNO3, 1 mM NaNO3, 1 mM CaSO4, 1 mM MgSO4, 15 μM MnSO4, 15 μM (NH4)2Fe(SO4)2, 15 μM NH4Fe(SO4)2, 15 μM CoSO4, 15 μM NiSO4, 15 μM CuSO4, 15 μM [Cu(CH3CN)4]PF6, 15 μM CdSO4, 15 μM Hg(NO3)2, 15 μM Pb(NO3)2, or 15 μM ZnSO4. The fluorescence spectra were compared to that of ZincBY-2 (200 nM), ZincBY-3 (200 nM), or ZincBY-4 (200 nM) in the presence of 10 μM TPEN. […] A log P value for each probe was determined by agitating nanomolar solutions of each probe in a 1:1 mixture of HEPES buffer and 1-octanol. […]
# [2] = Photophysical properties in solvents of varied dielectric constants (water/acetonitrile); type: physicochemical
# Procedure: as §1
# [3] = previously reported value; read-out: zinc dissociation constant (reported); cited from earlier work
SMILES,retention of fluorescence intensity after 12 hours ([1]; apo) [%],fluorescence intensity after 12 hours ([1]; apo) [%],retention of fluorescence intensity after 12 hours ([1]; holo) [%],fluorescence intensity after 12 hours ([1]; holo) [%],emission maximum wavelength as the dielectric constant decreases ([2]; apo),fluorescence intensity as the dielectric constant changes ([2]; apo),emission maximum wavelength as the dielectric constant decreases ([2]; holo) [nm],fluorescence intensity as the dielectric constant changes ([2]; holo),pKd [3]
"CC(=O)NCCOc1ccc2n1[B-](F)(F)[N+]1=C(N(CCN(Cc3ccccn3)Cc3ccccn3)Cc3ccccn3)C=CC1=C2c1c(C)cc(C)cc1C [ZincBY-4, N-(2-((7-((2-(bis(pyridin-2-ylmethyl)amino)ethyl)(pyridin-2-ylmethyl)amino)-5,5-difluoro-10-mesityl-5H-5λ4,6λ4-dipyrrolo[1,2-c:2′,1′-f][1,3,2]diazaborinin-3-yl)oxy)ethyl)acetamide]",40,7,97,83,does not change,does change in response to dielectric constant,575,does not change as the dielectric constant changes,–
"COc1ccc2n1[B-](F)(F)[N+]1=C(N(CCN(Cc3ccccn3)Cc3ccccn3)Cc3ccccn3)C=CC1=C2c1c(C)cc(C)cc1C [ZincBY-1, reference compound]",–,–,–,–,–,–,–,–,8.59
